What was measured:
Nampt = Nampt (Homo sapiens, UniProt P43490); settings: literature (ref. 30); cited from earlier work
[1] = tested on: Per2 and Dbp gene expression in MEFs; test: Per2 and Dbp gene expression in serum-entrained MEFs treated with FK866, q-PCR; assay type: cell-based, mouse; settings: MEFs pretreated with 10 nM FK866, then serum-stimulated
Method: Each quantitative real-time RT-PCR was performed using the Chromo4 real time detection system (BIO-RAD). […] The reaction was first incubated at 95° C. for 3 min, followed by 40 cycles at 95° C. for 30 s and 60° C. for 1 min.

BMAL1 Lys537 acetylation = BMAL1 Lys537 acetylation profile in serum-entrained MEFs treated with FK866; assay type: cell-based, mouse; settings: cultured MEFs
Method: This illustrates Nampt modulation of the circadian clock. Panel A depicts Pert and Dbp gene expression levels in serum-entrained MEFs treated with 10 nM FK866 or EtOH as control (solvent:ctrl) were analyzed by q-PCR. The highest value for each gene in EtOH treated MEFs was set to 1. All data presented are the means±SEM of three independent samples. […] Cell extracts prepared from indicated time points were processed to visualize BMAL1 acetylation using the anti-acetyl specific BMAL1 antibody as described herein. Input samples were probed with anti-BMAL1 and anti-GAPDH antibodies. Panel C is a schematic representation of the transcription-enzymatic interplay by which the circadian machinery governs the intracellular levels of NAD^+. The NAD^+-dependent deacetylase SIRT1 is thereby controlling the oscillatory synthesis of its own coenzyme.
NAMPT inhibitor “FK866” treatment experiments MEFs in growing phase (−50% confluent) were pre-treated with 10 nM FK866 dissolved in ethanol/serum-free DMEM 16 hr prior to high serum treatment. After 2 hr serum treatment, medium were changed to serum-free medium containing 10 nM FK866. […]

Sequence of Nampt (P43490 whole entry): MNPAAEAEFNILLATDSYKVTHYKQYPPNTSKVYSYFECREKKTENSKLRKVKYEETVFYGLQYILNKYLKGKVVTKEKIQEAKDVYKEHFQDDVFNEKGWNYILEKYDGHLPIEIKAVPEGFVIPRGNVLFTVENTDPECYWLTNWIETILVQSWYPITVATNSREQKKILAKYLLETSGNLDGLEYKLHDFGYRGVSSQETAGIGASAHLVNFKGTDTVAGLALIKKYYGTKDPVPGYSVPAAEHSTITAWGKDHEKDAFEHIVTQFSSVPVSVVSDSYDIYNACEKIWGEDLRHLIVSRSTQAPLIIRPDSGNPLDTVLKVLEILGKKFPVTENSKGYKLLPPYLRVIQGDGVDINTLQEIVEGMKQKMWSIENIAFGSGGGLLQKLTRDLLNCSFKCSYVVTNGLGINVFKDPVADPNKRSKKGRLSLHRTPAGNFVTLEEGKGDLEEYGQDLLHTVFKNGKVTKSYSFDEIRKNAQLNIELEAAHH

SMILES: O=C(/C=C/c1cccnc1)NCCCCC1CCN(C(=O)c2ccccc2)CC1 [FK866]
- inhibition of Nampt enzymatic activity (Nampt): specifically inhibits Nampt enzymatic activity
- increase of amplitude of oscillation (Per2 and Dbp), average [1]: 30-40%
- onset of the circadian peak for both genes (Per2 and Dbp), earlier by [1]: 3 to 4 h
- BMAL1 acetylation at K537 (BMAL1 Lys537 acetylation; 10 nM FK866): heavily increased and displays a broader peak
- effect on BMAL1 protein levels (BMAL1 Lys537 acetylation; 10 nM FK866, any time of the circadian cycle): no major effect
